Assay results published in US11021706B2, “Antisense antibacterial compounds and methods” (priority 2014, dated 2021).
{TEG} = triethylene glycol 5' moiety of the PMO, as defined in the publication

Assays:
[1] = test system: Klebsiella pneuomoniae; test: MIC of meropenem with added NDM-1-targeted PPMO; assay type: cell-based; details: without PPMO, data not shown
[2] = test system: adeA-expressing Acinetobacter baumanii; test: MIC of gentamicin, tobramycin and tetracycline with added adeA-targeted PPMO (CLSI microdilution); assay type: cell-based; details: concentration dependent
[3] = test system: B. cenocepacia K56-2; test: Bcc growth in artificial CF sputum; assay type: cell-based
Experimental: B. cenocepacia K56-2 was incubated alone or in the presence of either a scrambled sequence (Scr) placebo PPMO or acpP PPMO (PPMO #15, Table 2C) at 10 μM or 20 μM concentration. Media or PPMO was dosed at 2, 8 and 12 hours. Samples were plated at 24 hours and CFU/ml was determined.
PPMOs were tested to determine whether they retained their activity in sputum. Using a well-described method for making “artificial CF sputum,” experiments were conducted to see whether a PPMO could reduce the burden of Bcc in this environment (FIG. 12). B. cenocepacia K56-2 was incubated alone or in the presence of either a scrambled-sequence (Scr) placebo PPMO or acpP PPMO (PPMO #15). The acpP-targeted PPMO has the following sequence: GTCCATTACCC (PPMO #15; SEQ ID NO: 25). The PPMO was conjugated at its 5′ end to the C-terminal β-alanine residue of (RFF)3RXB (SEQ ID NO: 41). Media or PPMO was dosed at 2, 8 and 12 hours. Samples were plated at 24 hours and CFU/ml was determined. The acpP PPMO was able to reduce the organism burden (both at 10 and 20 μM dosing). At 10 μM dosing, there was an approximately 2-log reduction in CFU/ml by 24-hours compared to no treatment control. At 20 μM dosing, there was a >3-log reduction seen. This reduction was apparent as early as 8 hours in the 20 μM group and 12 hours in the 10 μM group. These experiments indicate that PPMOs remain active even in the thick viscous sputum that is seen in CF patients. This is the first time that activity of PPMOs has been tested in sputum.

[4] = test system: B. multivorans; test: Aerosol PPMO in pulmonary infection model, lung burden; assay type: in vivo; details: single 300 μg aerosol dose 6 hours post-infection; CGD mice; 24 hours after infection
Experimental: Chronic granulomatous disease (CGD) mice were used as a Bcc infection model. An Aerogen nebulizer was used to deliver either scrambled (Scr) PPMO ([…]) or acpP PPMO (PPMO #15, Table 2C, 300 μg or 30 μg) as a one-time dose 6 hours post-infection. Mice were euthanized 24 hours after infection and lung burden was determined as CFU/g.
Delivering PPMOs directly to the lung in the setting of chronic pulmonary infections would be useful. Chronic granulomatous disease (CGD) mice were used as a Bcc infection model. These mice develop significant morbidity and mortality when infected with various Bcc strains. Mice were infected intranasally with a clinical B. multivorans isolate (FIG. 15). An Aerogen nebulizer was used to deliver either scrambled (Scr) PPMO (300 μg) or acpP PPMO (PPMO #15, 300 μg or 30 μg) as a one-time dose 6 hours post-infection. The acpP-targeted PPMO has the following sequence: GTCCATTACCC (SEQ ID NO: 25). The PPMO was conjugated at its 5′ end to the C-terminal β-alanine residue of (RFF)3RXB (SEQ ID NO: 41). Mice were euthanized 24 hours after infection and lung burden was determined. The single 300 μg dose of the acpP PPMO reduced the lung burden by 93% and was a statistically significant decrease. Aerosol delivery of PPMOs is a viable therapeutic strategy and importantly, this is the first time that nebulized delivery of Bcc PPMOs has been attempted.

[5] = test system: B. cenocepacia HI4277; test: 24 hour growth with acpP PPMOs (bactericidal test), pan-resistant strain; assay type: cell-based; details: FIG. 11 Panel B
Experimental: (§1) Two different isolates of B. cenocepacia were incubated for 24 hours in the presence or absence of different acpP PPMOs. All three acpP PPMOs caused a significant reduction of growth in the clinical CF isolate B. cenocepacia K56-2 (Panel A) and this effect was also seen for the pan-resistant strain B. cenocepacia H14277 (Panel B).
(§2) Many members of the Bcc are intrinsically antibiotic resistant making treatment difficult. B. cenocepacia is one of the most common species encountered by cystic fibrosis (CF) patients. Two different isolates of B. cenocepacia were incubated for 24 hours in the presence or absence of different acpP PPMOs (FIG. 11).

[6] = test system: B. cenocepacia K56-2; test: 24 hour growth with acpP PPMOs (bactericidal test); assay type: cell-based; details: 16 μM, FIG. 11 Panel A
Experimental: as §1, §2

[7] = test system: B. cenocepacia H14277; test: PPMO MIC, pan-resistant strain (FIG. 10); assay type: cell-based
Experimental: In B. cenocepacia K56-2 (a genome-sequenced clinical CF isolate; Panel A) all three PPMOs caused a significant reduction of growth with one PPMO (PPMO #19; SEQ ID NO: 27; 16 μM) causing>3-log reduction of growth compared to the starting inoculum, a strong bactericidal effect. Importantly, this effect was seen even in pan-resistant strains of B. cenocepacia (HI4277, a pan-resistant outbreak isolate from CF patients; FIG. 11, Panel B). […] The MIC of PPMO #19 was 8 μM in H14277 (FIG. 10), illustrating that PPMOs' ability to inhibit growth is not dependent on the underlying level of antibiotic resistance in any particular strain, an important finding with positive implications for this approach.

[8] = test system: B. cenocepacia J2315; test: MBEC peg biofilm assay, crystal violet and confocal microscopy; assay type: cell-based; details: 10 μM
Experimental: B. cenocepacia J2315 was grown utilizing MBEC biofilm assay plates for 48 hours in the presence of either acpP PPMO (10 μM), scrambled PPMO (10 μM), peptide or media alone. Biofilm production was measure utilizing a crystal violet method.
The pegs were moved to fresh media containing either nothing, the Scrambled (Scr) control PPMO at 10 μM concentration, or the acpP PPMO at 10 μM concentration. The MBEC pegs were incubated for another 48 hours and then stained with fluorescent green peanut-agglutinin stain for the biofilm and imaged on confocal microscopy.
The formation of biofilm is a significant virulence trait and is utilized by both P. aeruginosa and the Bcc. Bcc biofilms were grown and PPMOs were tested for their ability to both prevent biofilm formation and to deconstruct existing biofilms. B. cenocepacia J2315 (a genome sequenced, epidemic CF isolate) was grown utilizing MBEC biofilm assay plates which contain a peg that grows reproducible biofilms from day to day. J2315 was grown for 48 hours in the presence of either acpP PPMO (10 μM), scrambled PPMO (10 μM), peptide or media alone (FIG. 13). The acpP-targeted PPMO (PPMO #19) has the following sequence: CCATTACCCCT (SEQ ID NO: 27). The PPMO was conjugated at its 5′ end to the beta-alanine residue of (RFF)3RXB (SEQ ID NO: 41). Biofilm production was measured utilizing a crystal violet method. […]

[9] = test system: 39 Bcc clinical isolates; test: PPMO MIC against a panel of 39 Bcc clinical isolates; assay type: cell-based, Burkholderia cepacia complex; details: panel of 39 isolates; FIG. 10
Experimental: A variety of Bcc isolates were tested, including clinical isolates obtained from various body sites with varying levels of antibiotic resistance. The strain bank included 39 isolates that comprised the most frequently encountered species that have been reported to cause human disease. […] All 6 of these PPMOs targeted AcpP (an acyl carrier protein associated with fatty acid biosynthesis). Differences in the 6 PPMOs related to alternative positioning sites on the target mRNA.

C[C@@H](O)[C@H]1C(=O)N2C(C(=O)O)=C(S[C@@H]3CN[C@H](C(=O)N(C)C)C3)[C@H](C)[C@H]12 [meropenem]
MIC [1]: ~64 µM

PPMO #5: adeA-targeted PMO ATA CTG TCC AA (SEQ ID NO: 15); 5′ TEG; 3′ (RXR)4XB- peptide (antisense ATACTGTCCAA; all phosphorodiamidate morpholino (PMO), 5' {TEG}; 3' end conjugated to (RXR)4XB peptide via beta-alanine)
MIC of gentamicin ([2]; FIG. 2): significantly reduced
MIC of tobramycin ([2]; FIG. 3): significantly reduced
MIC of tetracycline ([2]; FIG. 4): significantly reduced

PPMO #15: acpP-targeted PMO GTCCATTACCC (SEQ ID NO: 25); 5′ (RFF)3RXB- peptide; 3′ H (all phosphorodiamidate morpholino (PMO); 5' end conjugated to (RFF)3RXB peptide via beta-alanine, further chemistry not fully specified)
reduction in CFU/ml compared to no treatment control ([3]; 10 μM dosing at 2, 8 and 12 hours, by 24-hours): approximately 2 log
time at which the reduction was apparent ([3]; 10 μM group): 12 h
reduction in CFU/ml compared to no treatment control ([3]; 20 μM dosing at 2, 8 and 12 hours, 24 hours): > 3 log
time at which the reduction was apparent ([3]; 20 μM group): 8 h
reduced the lung burden [4]: 93%

PPMO #19: acpP-targeted PMO CCATTACCCCT (SEQ ID NO: 27); 5′ (RFF)3RXB- peptide; 3′ H (all phosphorodiamidate morpholino (PMO); 5' end conjugated to (RFF)3RXB peptide via beta-alanine, further chemistry not fully specified)
bactericidal effect [5]: bactericidal
reduction of growth compared to the starting inoculum [6]: > 3 log
MIC [7]: 8 µM
reduced biofilm formation compared to controls ([8]; 48 hours, crystal violet, FIG. 13): > 50%
amount of existing biofilm present ([8]; 48 h biofilm then 48 hours more, confocal microscopy and crystal violet, FIG. 14C): significantly reduced
IC75 [9]: 4 µM
